# In ChEMBL document CHEMBL3045862, “PRE-CLINICAL AND CLINICAL PHARMACOKINETICS OF THE DIASTEREOMERS OF ARTEETHER, A POTENT ANTIMALARIAL” (Med Chem Res, 2004):
# What was measured:
# [1] = tested on: Rhesus monkey; experiment: Volume of distribution in Macaca mulatta (Rhesus monkey) at 50 mg/kg, po; assay type: ADME, organism-based; set-up: dose 50 mg/kg, route oral; conditions: in vivo
# [2] = Mean residence time in Macaca mulatta (Rhesus monkey) at 50 mg/kg, po; assay type: ADME, organism-based; set-up: dose 50 mg/kg, route oral; conditions: in vivo
# [3] = tested on: Rattus norvegicus; experiment: AUC (0 to infinity) in Rattus norvegicus Sprague-Dawley (rat) at 30 mg/kg, administered intramuscularly; assay type: ADME, organism-based, Plasma; set-up: time infinity, dose 30 mg/kg, route intramuscular; conditions: in vivo, im
# [4] = AUC (0 to infinity) in Homo sapiens (human) at 150 mg; assay type: ADME, organism-based; set-up: dose 150 mg, time infinity; conditions: plasma
# [5] = Cmax in Rattus norvegicus Sprague-Dawley (rat) at 30 mg/kg, po; assay type: ADME, organism-based; set-up: dose 30 mg/kg, route oral; conditions: in vivo
# [6] = tested on: Rhesus monkey; experiment: AUC (0 to infinity) in Macaca mulatta (Rhesus monkey) at 7.5 mg/kg, administered intramuscularly; assay type: ADME, organism-based, Plasma; set-up: time infinity, dose 7.5 mg/kg, route intramuscular; conditions: in vivo, im
# [7] = Clearance in Homo sapiens (human) at 150 mg; assay type: ADME, organism-based; conditions: in vivo
# [8] = tested on: Rattus norvegicus; experiment: Clearance in Rattus norvegicus Sprague-Dawley (rat) at 17.5 mg/kg, administered intramuscularly; assay type: ADME, organism-based; set-up: dose 17.5 mg/kg, route intramuscular; conditions: in vivo, im
# [9] = Mean residence time in Rattus norvegicus Sprague-Dawley (rat) at 2 mg/kg, iv; assay type: ADME, organism-based; set-up: dose 2 mg/kg, route intravenous; conditions: in vivo
# [10] = tested on: Rattus norvegicus; experiment: Clearance in Rattus norvegicus Sprague-Dawley (rat) at 30 mg/kg, administered intramuscularly; assay type: ADME, organism-based; set-up: dose 30 mg/kg, route intramuscular; conditions: in vivo, im
# [11] = tested on: Rattus norvegicus; experiment: Volume of distribution in Rattus norvegicus Sprague-Dawley (rat) at 9 mg/kg, administered intramuscularly; assay type: ADME, organism-based; set-up: dose 9 mg/kg, route intramuscular; conditions: in vivo, im
# [12] = Mean residence time in Rattus norvegicus Sprague-Dawley (rat) at 17.5 mg/kg, administered intramuscularly; assay type: ADME, organism-based; set-up: dose 17.5 mg/kg, route intramuscular; conditions: in vivo, im
# [13] = Elimination half life in Rattus norvegicus Sprague-Dawley (rat) at 2 mg/kg, iv; assay type: ADME, organism-based; set-up: dose 2 mg/kg, route intravenous; conditions: in vivo, read-out: beta t1/2 (converted)
# [14] = Volume of distribution in Homo sapiens (human) at 150 mg; assay type: ADME, organism-based; conditions: in vivo
# [15] = tested on: Rhesus monkey; experiment: Dose normalized AUC in Macaca mulatta (Rhesus monkey) at 7.5 mg/kg, administered intramuscularly; assay type: ADME, organism-based; set-up: dose 7.5 mg/kg, route intramuscular; conditions: in vivo, im
# [16] = Mean residence time in Macaca mulatta (Rhesus monkey) at 4 mg/kg, iv; assay type: ADME, organism-based; set-up: dose 4 mg/kg, route intravenous; conditions: in vivo
# [17] = Elimination half life in Rattus norvegicus Sprague-Dawley (rat) at 9 mg/kg, po; assay type: ADME, organism-based; set-up: dose 9 mg/kg, route oral; conditions: in vivo, read-out: beta t1/2 (converted)
# [18] = Elimination half life in Rattus norvegicus Sprague-Dawley (rat) at 30 mg/kg, administered intramuscularly; assay type: ADME, organism-based; set-up: dose 30 mg/kg, route intramuscular; conditions: in vivo, im, read-out: beta t1/2 (converted)
# [19] = Mean residence time in Rattus norvegicus Sprague-Dawley (rat) at 9 mg/kg, administered intramuscularly; assay type: ADME, organism-based; set-up: dose 9 mg/kg, route intramuscular; conditions: in vivo, im
# [20] = Cmax in Rattus norvegicus Sprague-Dawley (rat) at 17.5 mg/kg, po; assay type: ADME, organism-based; set-up: dose 17.5 mg/kg, route oral; conditions: in vivo
# [21] = Tmax in Rattus norvegicus Sprague-Dawley (rat) at 9 mg/kg, po; assay type: ADME, organism-based; set-up: dose 9 mg/kg, route oral; conditions: in vivo
# [22] = tested on: Rattus norvegicus; experiment: Clearance in Rattus norvegicus Sprague-Dawley (rat) at 9 mg/kg, administered intramuscularly; assay type: ADME, organism-based; set-up: dose 9 mg/kg, route intramuscular; conditions: in vivo, im
# [23] = tested on: Rhesus monkey; experiment: AUC (0 to infinity) in Macaca mulatta (Rhesus monkey) at 50 mg/kg, po; assay type: ADME, organism-based, Plasma; set-up: time infinity, dose 50 mg/kg, route oral; conditions: in vivo
# [24] = tested on: Rattus norvegicus; experiment: Dose normalized AUC in Rattus norvegicus Sprague-Dawley (rat) at 17.5 mg/kg, po; assay type: ADME, organism-based; set-up: dose 17.5 mg/kg, route oral; conditions: in vivo
# [25] = tested on: Rattus norvegicus; experiment: Volume of distribution in Rattus norvegicus Sprague-Dawley (rat) at 30 mg/kg, administered intramuscularly; assay type: ADME, organism-based; set-up: dose 30 mg/kg, route intramuscular; conditions: in vivo, im
# [26] = Tmax in Rattus norvegicus Sprague-Dawley (rat) at 9 mg/kg, administered intramuscularly; assay type: ADME, organism-based; set-up: dose 9 mg/kg, route intramuscular; conditions: in vivo, im
# [27] = tested on: Rattus norvegicus; experiment: AUC (0 to infinity) in Rattus norvegicus Sprague-Dawley (rat) at 9 mg/kg, po; assay type: ADME, organism-based, Plasma; set-up: time infinity, dose 9 mg/kg, route oral; conditions: in vivo
# [28] = Elimination half life in Rattus norvegicus Sprague-Dawley (rat) at 9 mg/kg, administered intramuscularly; assay type: ADME, organism-based; set-up: dose 9 mg/kg, route intramuscular; conditions: in vivo, im, read-out: beta t1/2 (converted)
# [29] = Tmax in Homo sapiens (human) at 150 mg; assay type: ADME, organism-based; conditions: in vivo
# [30] = Tmax in Rattus norvegicus Sprague-Dawley (rat) at 30 mg/kg, po; assay type: ADME, organism-based; set-up: dose 30 mg/kg, route oral; conditions: in vivo
# [31] = Cmax in Rattus norvegicus Sprague-Dawley (rat) at 9 mg/kg, po; assay type: ADME, organism-based; set-up: dose 9 mg/kg, route oral; conditions: in vivo
# [32] = Mean residence time in Rattus norvegicus Sprague-Dawley (rat) at 30 mg/kg, administered intramuscularly; assay type: ADME, organism-based; set-up: dose 30 mg/kg, route intramuscular; conditions: in vivo, im
# [33] = tested on: Rattus norvegicus; experiment: Dose normalized AUC in Rattus norvegicus Sprague-Dawley (rat) at 2 mg/kg, iv; assay type: ADME, organism-based; set-up: dose 2 mg/kg, route intravenous; conditions: in vivo
# [34] = tested on: Rattus norvegicus; experiment: Volume of distribution in Rattus norvegicus Sprague-Dawley (rat) at 30 mg/kg, po; assay type: ADME, organism-based; set-up: dose 30 mg/kg, route oral; conditions: in vivo
# [35] = Tmax in Rattus norvegicus Sprague-Dawley (rat) at 30 mg/kg, administered intramuscularly; assay type: ADME, organism-based; set-up: dose 30 mg/kg, route intramuscular; conditions: in vivo, im
# [36] = Elimination half life in Rattus norvegicus Sprague-Dawley (rat) at 17.5 mg/kg, administered intramuscularly; assay type: ADME, organism-based; set-up: dose 17.5 mg/kg, route intramuscular; conditions: in vivo, im, read-out: beta t1/2 (converted)
# [37] = tested on: Rattus norvegicus; experiment: Volume of distribution in Rattus norvegicus Sprague-Dawley (rat) at 17.5 mg/kg, po; assay type: ADME, organism-based; set-up: dose 17.5 mg/kg, route oral; conditions: in vivo
# [38] = Elimination half life in Homo sapiens (human) at 150 mg; assay type: ADME, organism-based; conditions: in vivo, read-out: beta t1/2 (converted)
# [39] = species on record: Homo sapiens; experiment: Dose normalized AUC in Homo sapiens (human) at 150 mg; assay type: ADME, organism-based; conditions: in vivo
# [40] = tested on: Rattus norvegicus; experiment: Dose normalized AUC in Rattus norvegicus Sprague-Dawley (rat) at 17.5 mg/kg, administered intramuscularly; assay type: ADME, organism-based; set-up: dose 17.5 mg/kg, route intramuscular; conditions: in vivo, im
# [41] = tested on: Rattus norvegicus; experiment: Volume of distribution in Rattus norvegicus Sprague-Dawley (rat) at 9 mg/kg, po; assay type: ADME, organism-based; set-up: dose 9 mg/kg, route oral; conditions: in vivo
# [42] = tested on: Rhesus monkey; experiment: AUC (0 to infinity) in Macaca mulatta (Rhesus monkey) at 4 mg/kg, iv; assay type: ADME, organism-based, Plasma; set-up: time infinity, dose 4 mg/kg, route intravenous; conditions: in vivo
compound,measurement,setting,value
CCO[C@@H]1O[C@@H]2O[C@]3(C)CC[C@H]4[C@H](C)CC[C@@H]([C@H]1C)[C@@]24OO3 [ALPHA-ARTEETHER],Vd,[1],7148.8 L/kg
same,MRT,[2],3.4 h
same,AUC,[3],601.1 ng·h/mL
same,AUC(0-inf),[4],1300 ng·h/mL
same,Cmax,[5],103 ng/mL
same,AUC,[6],641.8 ng·h/mL
same,clearance,[7],10 mL/min/kg
same,CL,[8],68.3 mL/min/kg
same,MRT,[9],0.6 h
same,CL,[10],247 mL/min/kg
same,Vd,[11],76.8 L/kg
same,MRT,[12],23.5 h
same,half-life,[13],0.55 h
same,Vd,[14],12 L/kg
same,AUC/dose,[15],285.3 ng·h/mL
same,MRT,[16],2 h
same,half-life,[17],2.4 h
same,half-life,[18],11.9 h
same,MRT,[19],47.8 h
same,Cmax,[20],37.6 ng/mL
same,Tmax,[21],5 min
same,CL,[22],40 mL/min/kg
same,AUC,[23],6.6 ng·h/mL
same,AUC/dose,[24],9.7 ng·h/mL
same,Vd,[25],253.3 L/kg
same,Tmax,[26],0.5 h
same,AUC,[27],73.8 ng·h/mL
same,half-life,[28],22 h
same,Tmax,[29],4.8 min
same,Tmax,[30],5 min
same,Cmax,[31],33.4 ng/mL
same,MRT,[32],14.4 h
same,AUC/dose,[33],219.5 ng·h/mL
same,Vd,[34],176.5 L/kg
same,Tmax,[35],0.167 h
same,half-life,[36],21.7 h
same,Vd,[37],244.3 L/kg
same,half-life,[38],13.2 h
same,AUC/dose,[39],1721.9 ng·h/mL
same,AUC/dose,[40],237.5 ng·h/mL
same,Vd,[41],122.2 L/kg
same,AUC,[42],754.4 ng·h/mL
